Measurements as given in patent publication US20100273872A1, “USE OF 4-OXOBUTANOIC ACID DERIVATIVES IN THE TREATMENT OF PATHOLOGIES ASSOCIATED WITH IMMUNOLOGICAL DISORDERS” (priority 2007, published 2010).
Marks after values point to notes of the source that are not given here.

Test system: humoral immunity in rats (splenocytes producing anti-sheep erythrocyte antibodies)
Assay: Direct haemolytic plaque (plaque-forming cells, PFC) test after immunisation with sheep erythrocytes
Type: in vivo, male Wistar rats
Conditions: rat; for % inhibition: haemolytic plaques (PFC)
Description: The immunosuppressive activity was evaluated by studying the humoral immunity in rats through the quantification of direct haemolytic plaques (“plaque-forming cells”—PFC) after immunisation with sheep erythrocytes.
This technique consists in stimulating the immune system with an anti-genic agent, the sheep erythrocytes, and in evaluating the effect of a substance on the immune response. This immune response is evaluated by measuring the proportion of splenocytes that produce anti-sheep erythrocyte antibodies in the presence of a complement (Jerne N. K., 1974).
The effect of the compounds, in suspension in methylcellulose hydrogel (Sigma ref: M0512), on the immune system was evaluated in male Wistar rats after oral administration for 5 and 7 days (5 days before sensitisation and 2 days after). The administration volume was 10 ml/kg.
10 rats were used in each group, each group corresponding to a dose of a compound, plus a control group (blank) and a positive control group (reference substance). The reference substance used was cyclophosphamide (monohydrate) from Sigma (ref: C0768) at a dose of 20 mg/kg administrated subcutaneously at a rate of 1 ml/kg, only administrated on the fifth day. During the four previous days, the animals were treated with the compound vehicle (methylcellulose).
On the fifth day, one hour after treatment, the animals were sensitised with sheep erythrocytes administrated intravenously (caudal vein), at a rate of 0.5 ml per animal. The sheep erythrocytes were suspended at a concentration of 2×10^9 cells/ml in a sodium chloride solution (isotonic).
On the ninth day, i.e. 4 days after sensitisation, the spleen was removed after euthanasia by exsanguination (section of the abdominal aorta) of the animals, which were previously anaesthetised with pentobarbital (Sanofi, 60 mg/kg).
Half of the spleen was broken up (ground), giving, after preparation, a suspension of splenocytes in PBS buffer (Dulbecco Gibco Ref: 3018199) containing 10^7 cells per millilitre.
The haemolytic plaque (PFC) reaction was induced by addition of 50 microlitres of the splenocyte suspension obtained for each animal in 200 microlitres of a suspension of PBS comprising complement and sheep erythrocytes.
The mixture, placed between the slide (holder) and cover slip creating an evaluation chamber (40 μl) delimited by paraffin, was incubated for one hour at 37° C.
At the end of the incubation, the slides were immediately placed flat at 4° C. The evaluation was performed as soon as possible. The number of haemolytic plaques (PFC) was determined by a standardised method of slide evaluation using an optical microscope. A haemolytic plaque (PFC) is a plaque where only one trapped splenocyte can be observed. The number of haemolytic plaques (PFC) is calculated for 10^6 spleen cells.

SMILES | % inhibition (1st experiment, cyclophosphamide 20 mg/Kg subcutaneously, only on the fifth day) | % inhibition (2nd experiment, cyclophosphamide 20 mg/Kg subcutaneously, only on the fifth day) | % inhibition (1st experiment, 30 mg/Kg oral, treatment for 5 days before sensitisation) [%] | % inhibition (1st experiment, 100 mg/Kg oral, treatment for 5 days before sensitisation) | % inhibition (1st experiment, 300 mg/Kg oral, treatment for 5 days before sensitisation) | % inhibition (2nd experiment, 0.01 mg/Kg oral, treatment for 7 days (5 days before sensitisation and 2 days after)) [%] | % inhibition (2nd experiment, 0.1 mg/Kg oral, treatment for 7 days (5 days before sensitisation and 2 days after)) | % inhibition (2nd experiment, 1 mg/Kg oral, treatment for 7 days (5 days before sensitisation and 2 days after)) | dose giving a statistically significant decrease in the number of haemolytic plaques (PFC) (oral, decrease in the humoral immune response) [mg/kg] | effect in relation to the treatment phase (treatment before sensitisation only vs. also after sensitisation)
O=P1(N(CCCl)CCCl)NCCCO1 (stereo not shown) [Cyclophosphamide, cyclophosphamide, reference compound] | 85** % | 54** % | – | – | – | – | – | – | – | –
O=C(CC(Cc1ccccc1)C(=O)O)c1ccc(F)cc1 (single isomer, unassigned; (-)) [Molecule A, (−) 4-(4-Fluorophenyl)-4-oxo-2-phenylmethylbutanoic acid] | – | – | 3 | 19** % | 29** % | 0 | 43 * % | 42** % | ≥ 0.1 | stronger effect after the sensitisation phase
